Test system: mouse peritoneal macrophages
Assay: Suppression of foaming of macrophages: cholesterol ester (CE) production in mouse peritoneal macrophages loaded with liposomes
Assay type: cell-based
Settings: for suppression of foaming of macrophages / cholesterol ester synthesis (result in words): mouse peritoneal macrophages, 5 μM; for CE yield (%): test compound 5 μM, 16 h with liposomes, cholesterol ester yield relative to control without test compound = 100% (smaller value = more potent suppression)
Procedure: Activity of the compounds of the present invention for suppressing the foaming of macrophages, which triggers arterial sclerosis, was examined. (1) In vitro experiment using mouse peritoneal macrophages.
15-Week old female ICR mice (Nippon SLC) were subjected to bleeding by cutting off their cervicalis, and Hanks buffer (Nippon Seiyaku) was injected into their peritoneal cavities. After abdominal regions of the mice were massaged, the buffer was recovered immediately, and then the resulting buffer was centrifuged at 1,000 r.p.m. for five minutes to collect peritoneal macrophages. Then, the collected macrophages were suspended in GTI medium (Wako Pure Chemical Industries), and inoculated onto a 24-well microtiter plate. After the macrophages were cultivated at 37° C. under 5% CO2 for two hours, the culture medium was changed with Dulbecco Modified Eagle Medium (MEM, Nippon Seiyaku). The macrophages were further cultivated at 37° C. under 5% CO2 for 16 hours, and then a test compound and liposomes were added to the culture.
1) Test compound: dissolved in DMSO (Wako Pure Chemical Industries),
2) Liposomes: PC/PS/DCP/CHOL=50/50/10/75 (nmol)
PC: Phosphatidylcholine (Funakoshi);
PS: Phosphatidylserine (Funakoshi);
DCP: Dicetylphosphate (Funakoshi);
CHOL: Cholesterol (Sigma)
After cultivation was further continued at 37° C. under 5% CO2 for 16 hours, lipid fraction was extracted with chloroform and methanol. The extracted lipid fraction was dissolved in isopropyl alcohol, and the produced cholesterol ester (CE) was quantified by an enzymatic luminescence method. Yield of the cholesterol ester was calculated as a relative ratio based on yield of the control as 100% where no test compound was added.

Compound | suppression of foaming of macrophages / cholesterol ester synthesis (result in words) | CE yield (%)
CC(C)Oc1cccc(OC(C)C)c1NC(=O)CN1CCN(CCCSc2nc3ccccc3[nH]2)CC1 [Ref. 2, reference compound] | almost no inhibitory effect | 95
O=C1c2ccccc2C(=O)N1CCCCSCc1nc2ccccc2[nH]1 [Ref. 1, reference compound] | completely inactive | 89
O=C1CCC(=O)N1CCCCCSc1nc2ccccc2[nH]1 [Compound 11, N-(5-(benzimidazolyl-2-thio)pentyl)succinimide] | – | 19
O=C1CSC(=O)N1CCCCCSc1nc2ccccc2[nH]1 [Compound 2, 3-(5-(benzimidazolyl-2-thio)pentyl)-2,4-thiazolidinedione] | – | 19
O=C1CSC(=O)N1CCOCCOCCSc1nc2ccccc2[nH]1 [Compound 23, 3-(2-(2-(2-benzimidazolyl-2-thio)ethoxy)ethoxy)ethyl-2,4-thiazolidinedione] | – | 22
CCC(=O)n1c(SCCCCCN2C(=O)OC(C)C2=O)nc2ccccc21 (stereo not shown) [Compound 15, 3-(5-(1-propionylbenzimidazolyl-2-thio)pentyl)-5-methyl-2,4-oxazolidinedione] | – | 12
O=C1CSC(=O)N1CCOCCSc1nc2ccccc2[nH]1 [Compound 22] | – | 23
3-(6-(5-chlorobenzothiazolyl-2-thio)hexyl)-2,4-thiazolidinedione [Compound 16] | – | 15
3-(5-(1-methylbenzimidazolyl-2-thio)pentyl)-5-methyl-2,4-oxazolidinedione [Compound 14] | – | 20
CCCCCCN(CCCCCSc1nc2ccccc2[nH]1)C(=O)Nc1ccc(F)cc1F [Ref. 3, reference compound] | almost no inhibitory effect | 78

Reference: patent publication US6593323B1, “Benzimidazole compounds and drugs containing the same” (Fuji Photo Film Co., Ltd., priority 1999, dated 2003)
